# Experimental data taken from patent US10632084B2, “Aquaporin 4 function promotor and pharmaceutical composition for neurological disorders” (NIIGATA UNIVERSITY, priority 2016, dated 2020).
# Experiments:
# [1] = target: T1, AQP 4 (Mus musculus, UniProt P55088); assay: AQP 4 function promotion verification test using Alzheimer's disease model mice (H2 17O dynamics in brain by MRI); type: in vivo; settings: 5×FAD Alzheimer's disease model mice, 50 mg/kg orally for 3 months, MRI (FIG. 3)
# T1 construct: from tissue; host or cells: brain of living B6SJL mice
# Description: (§1) 5×FAD Alzheimer's disease model mice were bred until 4 months old. Next, the compound 1A (50 mg/kg) or the compound 2A (200 mg/kg) prepared in Production Example 1 were orally administered to the mice for 3 months. Further, a non-administration group was also prepared as the control.
# With respect to the group of mice to which the compound 1A was administered and the non-administration group, images showing the dynamics of H2^17O in the brain of each mouse (cortex and CSF) at 8 second intervals were recorded until 70 seconds after the administration using MRI according to the same method as in Test Example 1. In FIG. 3, “Vehicle” indicates a non-administration group and “Compound 1A” indicates a compound 1A administration group. Further, relative values (CSF/Cortex) with respect to the cortex are also shown.
# [2] = test system: senile plaques (Aβ); assay: Immunostaining of brain slices and quantification of senile plaques in Alzheimer's disease model mice; type: in vivo, mouse; settings: 5×FAD mice; for increase in senile plaques formed of Aβ 42: oral administration for 3 months (compound 1A 50 mg/kg, compound 2A 200 mg/kg), cerebral cortex (FIGS. 4A, 4B)
# Description: as §1
# Subsequently, the brain was extracted from each mouse, paraffin-embedded slices (respectively with a thickness of 4 μm) were prepared using brain tissues, and immunohistochemical staining was performed according to the following method.
# First, the slices were subjected to a formic acid treatment, and overnight incubation was performed at 4° C. using Mouse monoclonal Anti-Human Amyloid J3 (Total Aj3) (10027, IBL, Japan), [2] Rabbit polyclonal Anti-Human Amyloid J31-40 (AJ340) (18580, IBL, Japan), or [3] Rabbit polyclonal Anti-Human Amyloid J31-42 (AJ342) (18582, IBL, Japan) as primary antibodies. Further, the dilution ratios of antibodies were respectively [1]×50, [2]×200, and [3]×200. After the secondary antibodies were applied, the antibodies were visualized according to a polymer method using Histofine DAB substrate kit (NICHIREI CORPORATION, JAPAN).
# Next, the tissue images of the stained samples were imaged using a bright field optical microscope (Olympus Corporation, BX53, DP73), and the images were stored according to the TIFF format (2400×1800 pixels, 3.5×2.6 mm, 2.13 μm^2/pixel). Each image was analyzed in the following manner using a particle analysis function of the image analysis processing software (Aquacosmos, Hamamatsu Photonics K.K., Japan). ROI was set as the cerebral cortex, particles were extracted according to a binarization method, and the area (the number of pixels) of each extracted particle was automatically calculated and output. In output particle data, particles with an area of 10 pixels or less were removed as noise and quantified.
# [3] = target: T2, human AQP 4 (hAQP 4)-M23 isoform (Homo sapiens, UniProt P55087); assay: In vitro assay of oocyte volume under hypotonic condition, Xenopus laevis oocytes expressing AQP 4; type: cell-based; settings: 20 μM compound, oocytes injected with hAQP 4-M23 mRNA, hypotonic reagent, up to 250 seconds, vs Blank (FIG. 1)
# T2 construct: expressed in transfected cells; host or cells: Xenopus laevis oocytes, microinjected with hAQP4-M23 mRNA (pSP35T vector)
# Description: A Modified Barth's Medium (MBS) was provided to contain NaCl (88 mM), KCl (1 mM), HEPES (10 mM), MgSO4 (0.82 mM), NaHCO3 (2.4 mM), CaCl2 (0.91 mM), Ca(NO3)2 (0.33 mM), and gentamicin (100 mg/L), prepared to have a pH of 7.5, and used within one week after the preparation.
# Isolation, preparation, and transfection of the oocytes of a Xenopus laevis were performed using a method described in the reference (Sakimura, et al., FEBS Lett., 272, 73 to 80, 1990.). Specifically, the oocytes were extracted from a female adult of a Xenopus laevis (weight of 150 g) and transferred to an MBS. Next, the oocytes were partially transferred to an isolation buffer solution, and the theca folliculi was manually removed so that the oocytes were exposed. […]
# Next, the transferred oocytes were imaged using an SZX 16 microscope (manufactured by Olympus Corporation) connected to a DP 26 digital camera (manufactured by Olympus Corporation). […] A Hypotonic reagent (1000 μL) was added, and an assay initial image (t=3 seconds) and images at 15 second intervals of were recorded up to 250 seconds after the administration. […]
# Subsequently, the images were transferred to a personal computer, and the region of each oocyte was evaluated using NIH Image-J. The value of the cross-sectional area of each oocyte in a plurality of equally determined measurement times was converted into a volume assumed to be spherical. […]
# [4] = target: T1, AQP 4; assay: AQP 4 function promotion verification test using mice (H2 17O dynamics in brain by MRI); type: in vivo; settings: normal male B6SJL-Tg mice, 8 weeks old, intraperitoneal administration, MRI until 70 seconds (FIG. 2B)
# Description: Normal male B6SJL-Tg mice obtained from Jackson Laboratory were bred until 8 weeks old. Next, indomethacin as a comparative example, the compound 2A prepared in Production Example 1, and physiological saline as the control were intraperitoneally administered to respectively five mice.
# Thereafter, 0.2 mL of typical physiological saline containing 20% H2^17O was administered to the right femoral vein of each mouse through the PE10 tube inserted thereinto using an automatic syringe at 0.04 mL/sec. Next, images showing the dynamics of H2^17O in the brain of each mouse ((cortex) and the cerebrospinal fluid (CSF)) at 8 second intervals were recorded until 70 seconds after the administration using magnetic resonance imaging (MRI). The results are shown in FIG. 2A (administration of indomethacin) and FIG. 2B (administration of compound 2A). FIGS. 2A and 2B show relative values (CSF/Cortex) of CSF with respect to the cortex. In FIGS. 2A and 2B, “Vehicle” indicates a non-administration control group, “Indomethacin” indicates an indomethacin administration group, and “Compound 2A” indicates a compound 2A administration group.
# T1 sequence (P55088 whole entry): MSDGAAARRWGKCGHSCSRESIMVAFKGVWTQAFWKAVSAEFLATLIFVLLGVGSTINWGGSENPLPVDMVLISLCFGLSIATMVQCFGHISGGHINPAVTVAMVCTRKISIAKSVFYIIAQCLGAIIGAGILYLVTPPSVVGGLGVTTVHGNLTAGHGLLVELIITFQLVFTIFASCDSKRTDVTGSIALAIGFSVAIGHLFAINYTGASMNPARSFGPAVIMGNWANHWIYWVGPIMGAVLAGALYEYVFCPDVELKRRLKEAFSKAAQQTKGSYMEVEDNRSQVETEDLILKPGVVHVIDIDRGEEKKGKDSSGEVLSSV
# T2 sequence (P55087 23-323): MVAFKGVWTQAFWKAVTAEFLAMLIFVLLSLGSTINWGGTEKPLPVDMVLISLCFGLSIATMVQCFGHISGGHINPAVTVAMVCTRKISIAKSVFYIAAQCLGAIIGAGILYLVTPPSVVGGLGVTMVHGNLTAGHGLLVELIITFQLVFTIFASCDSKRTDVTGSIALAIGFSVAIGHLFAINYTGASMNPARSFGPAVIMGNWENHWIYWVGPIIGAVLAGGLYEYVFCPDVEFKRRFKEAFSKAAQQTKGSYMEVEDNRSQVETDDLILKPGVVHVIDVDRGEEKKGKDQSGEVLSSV
SMILES,"AQP 4 function (H2 17O dynamics, CSF/Cortex) [1]","increase in senile plaques (total Aβ, Aβ 40, Aβ 42 staining) ([2]; 50 mg/kg orally for 3 months, cerebral cortex (FIGS. 5A-7B))",increase in senile plaques formed of Aβ 42 [2],volume of the oocyte [3],"numerical values of CSF/Cortex (H2 17O dynamics; water discharge, flow of cerebrospinal fluid) [4]"
"N=C(N)NCCS(=O)(=O)O [compound 1A, 2-guanidino-1-ethanesulfonic acid]",markedly promoted,can be suppressed,can be suppressed,–,–
"O=S(=O)(Nc1ncccc1OCc1ccccc1)c1ccccc1 [compound 2A, 2-(phenylsulfonamido)-3-benzyloxypyridine]",–,–,can be suppressed,significantly increased,decreased
